In the NIST ThermoML archive (doi:10.1016/j.jct.2019.04.023):

Test: xn = mol fraction of the nth substance listed
Details: 101 kPa, Liquid; for viscosity: Falling or rolling sphere viscometry; for mass density: Vibrating tube method

CC[N+](CC)=C(N(C)C)N(C)C.O=S(=O)([N-]S(=O)(=O)C(F)(F)F)C(F)(F)F + CCO
Details	mass density [kg/m3]	viscosity [mPa·s]
293.15 K, x1 = 0.0995	1018.97	2.764
293.15 K, x1 = 0.1987	1136.2	5.261
293.15 K, x1 = 0.299	1207.9	9.359
293.15 K, x1 = 0.3991	1256.11	13.81
293.15 K, x1 = 0.5075	1293.66	20.03
293.15 K, x1 = 0.5956	1316.86	26.34
293.15 K, x1 = 0.7065	1339.41	36.42
293.15 K, x1 = 0.7983	1353.71	47.01
293.15 K, x1 = 0.9106	1367.67	62.04
293.15 K, x1 = 0.951	1372.2	70.47
293.15 K, x1 = 1	1377.86	81.02
298.15 K, x1 = 0.0995	1014.27	2.453
298.15 K, x1 = 0.1987	1131.43	4.596
298.15 K, x1 = 0.299	1203.13	8.052
298.15 K, x1 = 0.3991	1251.35	11.82
298.15 K, x1 = 0.5075	1288.9	16.96
298.15 K, x1 = 0.5956	1312.11	22.12
298.15 K, x1 = 0.7065	1334.68	30.22
298.15 K, x1 = 0.7983	1348.98	38.69
298.15 K, x1 = 0.9106	1362.96	50.44
298.15 K, x1 = 0.951	1367.5	56.94
298.15 K, x1 = 1	1373.16	65.01
303.15 K, x1 = 0.0995	1009.56	2.19
303.15 K, x1 = 0.1987	1126.67	4.044
303.15 K, x1 = 0.299	1198.38	6.99
303.15 K, x1 = 0.3991	1246.63	10.23
303.15 K, x1 = 0.5075	1284.19	14.53
303.15 K, x1 = 0.5956	1307.39	18.83
303.15 K, x1 = 0.7065	1329.99	25.47
303.15 K, x1 = 0.7983	1344.3	32.25
303.15 K, x1 = 0.9106	1358.3	41.52
303.15 K, x1 = 0.951	1362.85	46.62
303.15 K, x1 = 1	1368.51	52.96
308.15 K, x1 = 0.0995	1004.84	1.964
308.15 K, x1 = 0.1987	1121.91	3.583
308.15 K, x1 = 0.299	1193.62	6.102
308.15 K, x1 = 0.3991	1241.9	8.914
308.15 K, x1 = 0.5075	1279.48	12.57
308.15 K, x1 = 0.5956	1302.7	16.19
308.15 K, x1 = 0.7065	1325.33	21.69
308.15 K, x1 = 0.7983	1339.66	27.29
308.15 K, x1 = 0.9106	1353.68	34.83
308.15 K, x1 = 0.951	1358.24	38.87
308.15 K, x1 = 1	1363.9	43.84
313.15 K, x1 = 0.0995	1000.1	1.773
313.15 K, x1 = 0.1987	1117.13	3.195
313.15 K, x1 = 0.299	1188.87	5.364
313.15 K, x1 = 0.3991	1237.18	7.841
313.15 K, x1 = 0.5075	1274.79	10.98
313.15 K, x1 = 0.5956	1298.03	14.08
313.15 K, x1 = 0.7065	1320.7	18.73
313.15 K, x1 = 0.7983	1335.04	23.34
313.15 K, x1 = 0.9106	1349.09	29.46
313.15 K, x1 = 0.951	1353.66	32.73
313.15 K, x1 = 1	1359.32	36.79
318.15 K, x1 = 0.0995	995.32	1.606
318.15 K, x1 = 0.1987	1112.33	2.864
318.15 K, x1 = 0.299	1184.11	4.758
318.15 K, x1 = 0.3991	1232.46	6.927
318.15 K, x1 = 0.5075	1270.1	9.662
318.15 K, x1 = 0.5956	1293.36	12.36
318.15 K, x1 = 0.7065	1316.07	16.3
318.15 K, x1 = 0.7983	1330.44	20.16
318.15 K, x1 = 0.9106	1344.52	25.22
318.15 K, x1 = 0.951	1349.1	27.9
318.15 K, x1 = 1	1354.76	31.25
323.15 K, x1 = 0.0995	990.51	1.463
323.15 K, x1 = 0.1987	1107.51	2.585
323.15 K, x1 = 0.299	1179.33	4.253
323.15 K, x1 = 0.3991	1227.73	6.158
323.15 K, x1 = 0.5075	1265.41	8.555
323.15 K, x1 = 0.5956	1288.7	10.91
323.15 K, x1 = 0.7065	1311.45	14.31
323.15 K, x1 = 0.7983	1325.84	17.59
323.15 K, x1 = 0.9106	1339.96	21.82
323.15 K, x1 = 0.951	1344.55	24.03
323.15 K, x1 = 1	1350.21	26.79

CC[N+](CC)=C(N(C)C)N(C)C.O=S(=O)([N-]S(=O)(=O)C(F)(F)F)C(F)(F)F + CO
Details	mass density [kg/m3]	viscosity [mPa·s]
293.15 K, x1 = 0.0999	1073.55	1.848
293.15 K, x1 = 0.1984	1186.61	4.046
293.15 K, x1 = 0.3011	1249.9	7.913
293.15 K, x1 = 0.4008	1288.15	13.15
293.15 K, x1 = 0.5055	1315.68	19.75
293.15 K, x1 = 0.5916	1332.42	26.14
293.15 K, x1 = 0.712	1350.19	37.44
293.15 K, x1 = 0.7994	1360.11	46.94
293.15 K, x1 = 0.8995	1369.61	61.78
293.15 K, x1 = 1	1377.86	81.02
298.15 K, x1 = 0.0999	1068.63	1.685
298.15 K, x1 = 0.1984	1181.69	3.569
298.15 K, x1 = 0.3011	1245.05	6.875
298.15 K, x1 = 0.4008	1283.31	11.36
298.15 K, x1 = 0.5055	1310.86	16.81
298.15 K, x1 = 0.5916	1327.63	22.03
298.15 K, x1 = 0.712	1345.44	30.94
298.15 K, x1 = 0.7994	1355.37	38.51
298.15 K, x1 = 0.8995	1364.9	49.75
298.15 K, x1 = 1	1373.16	65.01
303.15 K, x1 = 0.0999	1063.71	1.538
303.15 K, x1 = 0.1984	1176.79	3.198
303.15 K, x1 = 0.3011	1240.23	6.03
303.15 K, x1 = 0.4008	1278.51	9.842
303.15 K, x1 = 0.5055	1306.08	14.47
303.15 K, x1 = 0.5916	1322.88	18.78
303.15 K, x1 = 0.712	1340.73	26.03
303.15 K, x1 = 0.7994	1350.68	32.26
303.15 K, x1 = 0.8995	1360.23	41.13
303.15 K, x1 = 1	1368.51	52.96
308.15 K, x1 = 0.0999	1058.79	1.413
308.15 K, x1 = 0.1984	1171.9	2.949
308.15 K, x1 = 0.3011	1235.43	5.332
308.15 K, x1 = 0.4008	1273.73	8.651
308.15 K, x1 = 0.5055	1301.33	12.59
308.15 K, x1 = 0.5916	1318.16	16.22
308.15 K, x1 = 0.712	1336.05	22.2
308.15 K, x1 = 0.7994	1346.03	27.19
308.15 K, x1 = 0.8995	1355.6	34.31
308.15 K, x1 = 1	1363.9	43.84
313.15 K, x1 = 0.0999	1053.86	1.296
313.15 K, x1 = 0.1984	1167.01	2.613
313.15 K, x1 = 0.3011	1230.63	4.749
313.15 K, x1 = 0.4008	1268.96	7.645
313.15 K, x1 = 0.5055	1296.6	11.05
313.15 K, x1 = 0.5916	1313.46	14.12
313.15 K, x1 = 0.712	1331.4	19.15
313.15 K, x1 = 0.7994	1341.4	23.25
313.15 K, x1 = 0.8995	1351	29.05
313.15 K, x1 = 1	1359.32	36.79
318.15 K, x1 = 0.0999	1048.89	1.2
318.15 K, x1 = 0.1984	1162.1	2.362
318.15 K, x1 = 0.3011	1225.81	4.261
318.15 K, x1 = 0.4008	1264.19	6.815
318.15 K, x1 = 0.5055	1291.87	9.775
318.15 K, x1 = 0.5916	1308.77	12.43
318.15 K, x1 = 0.712	1326.77	16.69
318.15 K, x1 = 0.7994	1336.79	20.12
318.15 K, x1 = 0.8995	1346.42	24.89
318.15 K, x1 = 1	1354.76	31.25
323.15 K, x1 = 0.0999	1043.89	1.114
323.15 K, x1 = 0.1984	1157.19	2.157
323.15 K, x1 = 0.3011	1221	3.854
323.15 K, x1 = 0.4008	1259.42	6.126
323.15 K, x1 = 0.5055	1287.15	8.704
323.15 K, x1 = 0.5916	1304.09	10.98
323.15 K, x1 = 0.712	1322.14	14.66
323.15 K, x1 = 0.7994	1332.18	17.56
323.15 K, x1 = 0.8995	1341.85	21.56
323.15 K, x1 = 1	1350.21	26.79
